In test [1] the test system is HMGB1. As to the kind of experiment: HMGB1 release screen, Nano-Glo HiBiT extracellular detection. The note with it: extracellular luminescence. The class given is cell-based. On the procedure: Construction of pBiT3.1-HMGB1 Plasmid
(§1) HMGB1 derived from pCMV6-AC-GFP plasmid (ref. RG205918, Origene) was amplified by PCR using the following set of primers: Seq ID No 1: forward, 5′-[…]-3′; Seq ID No 2: reverse, 5′-[…]-3′. The PCR fragment was subsequently digested by EcoRI and XhoI (R3101S and R0146S respectively, New England Biolabs) and inserted between the EcoRI and XhoI sites in the plasmid pBiT3.1-C(ref. N237A, Promega). The resulting plasmid (pBiT3.1-HMGB1) was grown in NEB10-beta competent E. coli (ref. C3019I, New England Biolabs) and purified using the NucleoBond Xtra Midi Kit (ref. 740410, Macherey-Nagel).
Construction of HMGB1 Reporter Cell Line
pBiT3.1-HMGB1 was transfected in MDA-MB-231 cells (ref. ATCC HTB-2) using Lipofectamine 2000 reagent (ref. 11668, Invitrogen). Transfected cells were selected for blasticidin resistance (15 μg/ml, ref. Al 113903 Gibco) in medium containing DMEM 1× (ref. 1995065, Gibco) with 1% penicillin and streptomycin, and 10% fetal bovine serum.
Screen for HMGB1-Releasing Drugs
MDA-MB-231 cells stably expressing HMGB1-HiBiT (10^4 cells/well) were seeded into white 96-well plates (ref.3917, Corning) and allowed to recover for 24h. […] Mitoxantrone dihydrochloride (ref. M6545, Sigma-Aldrich) was used as a positive control. Extracellular translocation of HMGB1 was measured using the Nano-Glo HiBiT extracellular detection system (ref. N2422, Promega). Nano-Glo HiBiT Extracellular Reagent was prepared in advance, added to the well and incubated 10 min. Luminescence of the extracellular HMGB1-HiBiT was quantified using the Spark 20M spectrofluorimeter (TECAN)
On the technique in general: HiBiT is a short tag that completes a luciferase, so light tracks the accessible tagged protein.

In test [2] the test system is Calreticulin. As to the kind of experiment: Calreticulin release (ER to plasma membrane translocation) screen, Nano-Glo HiBiT extracellular detection. The note with it: extracellular luminescence, read-out: CalR EC50. The class given is cell-based. The protocol:
as §1, with “Construction of pBiT3.1-Calreticulin Plasmid Calreticulin” for “HMGB1”, “pCMV6-AC” for “pCMV6-AC-GFP”, “SC320287,” for “RG205918,”, “3:” for “1:”, “4:” for “2:”, “(pBiT3.1-Calreticulin)” for “(pBiT3.1-HMGB1)”
Construction of Calreticulin Reporter Cell Line
pBiT3.1-Calreticulin was transfected in MDA-MB-231 cells (ref. ATCC HTB-2) using Lipofectamine 2000 reagent (ref. 11668, Invitrogen). Transfected cells were selected for blasticidin resistance (15 μg/ml, ref. Al 113903 Gibco) in medium containing DMEM 1× (ref. 1995065, Gibco) with 1% penicillin and streptomycin, and 10% fetal bovine serum.
Screen for Calreticulin-ER to Plasma Membrane Translocating Drugs
MDA-MB-231 cells stably expressing Calreticulin-HiBiT (10^4 cells/well) were seeded into white 96-well plates (ref.3917, Corning) and allowed to recover for 24h. […] Mitoxantrone dihydrochloride (ref. M6545, Sigma-Aldrich) was used as a positive control. Extracellular translocation of Calreticulin was measured using the Nano-Glo HiBiT extracellular detection system (ref. N2422, Promega). Nano-Glo HiBiT Extracellular Reagent was prepared in advance, added to the well and incubated 10 min.
Luminescence of the extracellular Calreticulin-HiBiT was quantified using the Spark 20M spectrofluorimeter (TECAN).

The mark [3] stands for this setting: Homo sapiens, MDA-MB-231, MDA-MB-231 cells stably expressing HMGB1-HiBiT.
Setting [4] is: Homo sapiens, MDA-MB-231, MDA-MB-231 cells stably expressing Calreticulin-HiBiT.

Read-outs that look alike come from different tables or passages of the source.

For `O=c1[nH]c(CN2CCc3ccccc32)nc2ccc(N3CCCC3)cc12` [Ex. #102, 2-(indolin-1-ylmethyl)-6-pyrrolidin-1-yl-3H-quinazolin-4-one], the EC50 is 1.37 µM in test [1] (setting [3]) and 0.595 µM in test [2] (setting [4]).

For `O=c1[nH]c(CN2CCc3ccccc3C2)nc2ccc(Cl)cc12` [Ex. #59, 6-chloro-2-(3,4-dihydro-1H-isoquinolin-2-ylmethyl)-3H-quinazolin-4-one], the EC50 stood at 7.51 µM in test [1] (setting [3]) and 4.41 µM in test [2] (setting [4]).

Take `COc1ccc2nc(CN3CCc4c(Br)cccc4C3)[nH]c(=O)c2c1` [Ex. #18, 2-[(5-bromo-3,4-dihydro-1H-isoquinolin-2-yl)methyl]-6-methoxy-3H-quinazolin-4-one]: the EC50 in test [1] (setting [3]) was found to be 9.36 µM; in test [2] (setting [4]) it was 2.06 µM.

In the case of `COc1cc(OC)c2nc(CN3CC(C)(C)c4ccccc43)[nH]c(=O)c2c1` [Ex. #94, 2-[(3,3-dimethylindolin-1-yl)methyl]-6,8-dimethoxy-3H-quinazolin-4-one], the EC50 in test [1] (setting [3]) came out at 5.76 µM; in test [2] (setting [4]) it was 3.06 µM.

With `Cc1cccc2c1CCN2Cc1nc2ccc(Cl)cc2c(=O)[nH]1` [Ex. #43, 6-chloro-2-[(4-methylindolin-1-yl)methyl]-3H-quinazolin-4-one], the figures for the half-maximal effective concentration (EC50) in test [1] (setting [3]) and in test [2] (setting [4]) were 1.15 µM and 1.07 µM, respectively.

Turning to `O=c1[nH]c(CN2CCc3cc(Br)ccc32)nc2ccc(Cl)cc12` [Ex. #48, 2-[(5-bromoindolin-1-yl)methyl]-6-chloro-3H-quinazolin-4-one], the figures for the EC50 in test [1] (setting [3]) and in test [2] (setting [4]) were 6.06 µM and 5.96 µM, respectively.

As to `COc1cc2c(=O)[nH]c(CN3CC(C)(C)c4ccccc43)nc2cc1Cl` [Ex. #93, 7-chloro-2-[(3,3-dimethylindolin-1-yl)methyl]-6-methoxy-3H-quinazolin-4-one], the EC50 was found to be 0.15 µM in test [1] (setting [3]) and 0.0975 µM in test [2] (setting [4]).

In the case of `COc1ccc2nc(CN3CC(CCO)c4ccccc43)[nH]c(=O)c2c1` (stereo not drawn) [Ex. #129, 2-[[3-(2-hydroxyethyl)indolin-1-yl]methyl]-6-methoxy-3H-quinazolin-4-one], the EC50 in test [1] (setting [3]) was found to be 13.3 µM; in test [2] (setting [4]) it was 10.7 µM.

Consider `Cc1cccc2c1CCCN2Cc1nc2ccc(Cl)cc2c(=O)[nH]1` [Ex. #53, 6-chloro-2-[(5-methyl-3,4-dihydro-2H-quinolin-1-yl)methyl]-3H-quinazolin-4-one], for which the EC50 in test [1] (setting [3]) stood at 2.51 µM; in test [2] (setting [4]), 0.73 µM.

Consider `COc1cccc2c1CCCN2Cc1nc2ccc(Cl)cc2c(=O)[nH]1` [Ex. #52, 6-chloro-2-[(5-methoxy-3,4-dihydro-2H-quinolin-1-yl)methyl]-3H-quinazolin-4-one], for which the EC50 in test [1] (setting [3]) was found to be 1.36 µM; in test [2] (setting [4]), 1.26 µM.

Consider `COc1ccc2nc(CN3CC(CCN)c4ccccc43)[nH]c(=O)c2c1` (stereo not drawn) [Ex. #131, 2-[1-[(6-methoxy-4-oxo-3H-quinazolin-2-yl)methyl]indolin-3-yl]ethylammonium chloride], for which the half-maximal effective concentration (EC50) in test [1] (setting [3]) came to 14.5 µM; in test [2] (setting [4]), 12.1 µM.

As to `COc1ccc2nc(CN3CCc4c(cccc4NS(C)(=O)=O)C3)[nH]c(=O)c2c1` [Ex. #21, N-[2-[(6-methoxy-4-oxo-3H-quinazolin-2-yl)methyl]-3,4-dihydro-1H-isoquinolin-5-yl]methanesulfonamide], the EC50 in test [1] (setting [3]) is 11.2 µM; in test [2] (setting [4]), 3.96 µM.

Regarding `COc1ccc2nc(CN3CCc4ccccc43)[nH]c(=O)c2c1` [Ex. #1, 2-(indolin-1-ylmethyl)-6-methoxy-3H-quinazolin-4-one], the EC50 in test [1] (setting [3]) stood at 2.72 µM; in test [2] (setting [4]), 0.231 µM.

For the molecule `Cc1ccc2c(c1)CN(Cc1nc3ccc(Cl)cc3c(=O)[nH]1)CC2` [Ex. #60, 6-chloro-2-[(7-methyl-3,4-dihydro-1H-isoquinolin-2-yl)methyl]-3H-quinazolin-4-one], the figures for the EC50 in test [1] (setting [3]) and in test [2] (setting [4]) were 9.36 µM and 0.87 µM, respectively.

With `COc1ccc2c(c1)N(Cc1nc3ccc(Cl)cc3c(=O)[nH]1)CCC2` [Ex. #55, 6-chloro-2-[(7-methoxy-3,4-dihydro-2H-quinolin-1-yl)methyl]-3H-quinazolin-4-one], the values for the EC50 in test [1] (setting [3]) and in test [2] (setting [4]) were 10.8 µM and 11.3 µM, respectively.

Regarding `O=c1[nH]c(CN2CCCOc3ccccc32)nc2ccc(Cl)cc12` [Ex. #64, 6-chloro-2-(3,4-dihydro-2H-1,5-benzoxazepin-5-ylmethyl)-3H-quinazolin-4-one], the EC50 in test [1] (setting [3]) was determined as 5.31 µM; in test [2] (setting [4]), 2.46 µM.

Turning to `CN(C)c1ccc2nc(CN3CC(C)(C)c4ccccc43)[nH]c(=O)c2c1` [Ex. #74, 6-(dimethylamino)-2-[(3,3-dimethylindolin-1-yl)methyl]-3H-quinazolin-4-one], the results for the EC50 in test [1] (setting [3]) and in test [2] (setting [4]) were 0.21 µM and 0.2 µM, respectively.

On to `Cc1ccc2c(c1)N(Cc1nc3ccc(Cl)cc3c(=O)[nH]1)CCC2` [Ex. #127, 6-chloro-2-[(7-methyl-3,4-dihydro-2H-quinolin-1-yl)methyl]-3H-quinazolin-4-one], for which the values for the EC50 in test [1] (setting [3]) and in test [2] (setting [4]) were 13.4 µM and 6.96 µM, respectively.

In the case of `O=c1[nH]c(CN2CCc3ccccc32)nc2ccc(N3CCC(O)C3)cc12` (stereo not drawn) [Ex. #105, 6-(3-hydroxypyrrolidin-1-yl)-2-(indolin-1-ylmethyl)-3H-quinazolin-4-one], the EC50 in test [1] (setting [3]) was 11.7 µM; in test [2] (setting [4]), 9.16 µM.

In the case of `O=c1[nH]c(CN2CCc3ccccc32)nc2ccc(N3CCC(CO)C3)cc12` (stereo not drawn) [Ex. #104, 6-[3-(hydroxymethyl)pyrrolidin-1-yl]-2-(indolin-1-ylmethyl)-3H-quinazolin-4-one], the figures for the EC50 in test [1] (setting [3]) and in test [2] (setting [4]) were 3.46 µM and 2.16 µM, respectively.

Turning to `COc1cc2c(=O)[nH]c(CN3CCc4ccccc43)nc2cc1F` [Ex. #76, 7-fluoro-2-(indolin-1-ylmethyl)-6-methoxy-3H-quinazolin-4-one], the EC50 turned out to be 0.594 µM in test [1] (setting [3]) and 0.292 µM in test [2] (setting [4]).

Regarding `CC(c1nc2ccc(Cl)cc2c(=O)[nH]1)N1CCc2ccccc21` (stereo not drawn) [Ex. #120, 6-chloro-2-(1-indolin-1-ylethyl)-3H-quinazolin-4-one], the EC50 in test [1] (setting [3]) came to 7.86 µM; in test [2] (setting [4]), 4.61 µM.

Consider `COc1ccc2nc(CN3CCc4cccc(OC)c4C3)[nH]c(=O)c2c1` [Ex. #19, 6-methoxy-2-[(8-methoxy-3,4-dihydro-1H-isoquinolin-2-yl)methyl]-3H-quinazolin-4-one], for which the EC50 in test [1] (setting [3]) was 10.2 µM; in test [2] (setting [4]) it was 7.36 µM.

`O=c1[nH]c(CN2CCc3ccccc32)nc2ccc(Cl)cc12` [Ex. #36, 6-chloro-2-(indolin-1-ylmethyl)-3H-quinazolin-4-one]: the EC50 in test [1] (setting [3]) turned out to be 1.01 µM; in test [2] (setting [4]) it was 1.8 µM.

For `COc1ccc(OC)c2c1CN(Cc1nc3ccc(Cl)cc3c(=O)[nH]1)CC2O` (stereo not drawn) [Ex. #61, 6-chloro-2-[(4-hydroxy-5,8-dimethoxy-3,4-dihydro-1H-isoquinolin-2-yl)methyl]-3H-quinazolin-4-one], the EC50 came out at 3.86 µM in test [1] (setting [3]) and 0.45 µM in test [2] (setting [4]).

On to `COc1ccc2c(=O)[nH]c(CN3CCc4ccccc43)nc2c1` [Ex. #86, 2-(indolin-1-ylmethyl)-7-methoxy-3H-quinazolin-4-one], for which the EC50 in test [1] (setting [3]) was 3.86 µM; in test [2] (setting [4]), 2.56 µM.

Regarding `CC1CN(Cc2nc3ccc(Cl)cc3c(=O)[nH]2)c2ccccc21` (single isomer, unassigned) [Ex. #38, 6-chloro-2-[(3-methylindolin-1-yl)methyl]-3H-quinazolin-4-one], the figures for the EC50 in test [1] (MDA-MB-231 cells stably expressing HMGB1-HiBiT) and in test [2] (MDA-MB-231 cells stably expressing Calreticulin-HiBiT) were 0.721 µM and 0.499 µM, respectively.

A word on the EC50: it is the concentration needed to bring the measured effect to its halfway point.

(Values after patent US20230150978A1, “QUINAZOLINONE DERIVATIVES AND USES THEREOF FOR TREATING A CANCER” (ENYO PHARMA, priority 2020, published 2023).)
